These results are taken from patent publication US7741348B2, “Bisheterocycle tandem compounds useful as antiviral agents, the uses thereof and the compositions comprising such compounds” (Shanghai Institute of Materia Medica, Chinese Academy of …, priority 2005, dated 2010).

SMILES strings stand for the structures. Converted amounts (≈) assume the structure as drawn. Like-named read-outs stand apart in the source and are kept apart here.

Data set [1] in a line: Cytotoxicity to HepG2.2.15 cells (MTT method). In kind it is cell-based. The settings on record: human, HepG2.2.15 cells (HBV-transgenic human hepatoma cells), 50% death concentration, eighth day. An excerpt: (§1) Hepatitis B virus (HBV) transgenic human hepatoma carcinoma cell, HepG2.2.15 cell line, can secrete hepatitis B virus particles (containing antigen and DNA) into supernatant when being cultured.
(§2) Under action of antiviral drugs, the contents of HBsAg, HBeAg and viral DNA secreted from cells into the supernatant were detected and are compared with the contents of control groups without drugs, so that the antiviral activity of the compounds of the present invention can be measured as well as the cytotoxic effect of compounds of the present invention. The value concentration of the compounds of the present invention which caused 50% of cells dead and was measured with MTT method was CC50; and the value concentration of the compounds of the present invention which inhibited the secretion of HBsAg and HBeAg detected by ELISA method and inhibited 50% of viral DNA replication detected by fluorescent quantification PCR method was IC50.
(§3) HepG2.2.15 cells were inoculated on a 96-well plate, and the compounds of the present invention were added next day. The medium and the compound solutions of the same concentration were renewed periodically. The culture supernatants were collected on the eighth day to be detected. MTT was added to the cells on the 96-well plate, and MTT dissolving liquid was added after 4 hours to be reacted overnight. OD570 was measured next day on microplate reader. And the cytotoxicity of the compounds of the present invention to the HepG2.2.15 cells, the effect of the compounds of the present invention on the growth of the cells, and the concentration of the compound of the present invention (CC50) causing 50% of the cells dead were estimated according to the OD values.
For orientation: Tetrazolium dyes change colour on reduction, which living cells bring about.

Data set [2] has as its system hepatitis B virus (HBV). The data set can be described thus: HBeAg secretion in HepG2.2.15 culture supernatant (ELISA). It is filed as cell-based. As to conditions: HepG2.2.15 supernatant, eighth day, read-out: HBeAg secreation IC50.
Description: as §1, §2, §3
(§4) HBsAg and HBeAg were detected with assaying kits (purchased from Sino-American biotechnological company). Samples were added to the coated strip plate, and the same amount of enzyme labeled conjugate was added, after reacting under 37° C. for 1 hour, the plate was washed 5 times. Colorant solutions A and B were added, and the reaction was stopped after 15 minutes, and OD450/630 was measured. The half inhibition rate IC50 of the sample for the HBV antigen was calculated according to the OD values.

Data set [3] relates to Vero (African green monkey kidney) cells. The data set can be described thus: 50% toxicity concentration in the anti-herpes virus screen (Vero cells). As to conditions: 50% toxity concentration, Table 3-1 (herpes virus screen, Vero cells).
The subject of another data set is influenza A virus. The data set can be described thus: Anti influenza A virus activity, cytopathic effect (CPE) in MDCK cells. In kind it is cell-based. An excerpt:
(§5) 4. Screening of the samples for the anti-influenza virus A and B activity: MDCK (canine kidney) cells were used as the virus host to test the inhibition effect of the compounds of the present invention on the cytopathic effect (CPE) of the cells caused by the virus.
A general note: Cytopathic effects are the visible damage that an infection or toxin causes in cultured cells.

In a further data set the test system is herpes virus II (HSV-II). As to the kind of experiment: Anti herpes virus II activity, cytopathic effect in Vero cells. In kind it is cell-based. As to conditions: read-out: Anti herpes virus II HSV-II (IC50). An excerpt: (§6) 3. Screening of the compounds for the anti-herpes virus I and II activity: Vero (African green monkey kidney) cells were used as virus host to test the inhibition effect of the compounds of the present invention on the cytopathic effect of the Vero cells caused by Herpes virus I and II.

The subject of data set [4] is MDCK (canine kidney) cells. As to the kind of experiment: 50% toxicity concentration in the anti-influenza screen (MDCK cells). In kind it is cell-based. The settings on record: 50% toxity concentration, Table 3-2 (influenza screen, MDCK cells).
Description: as §5

The test system of data set [5] is hepatitis B virus (HBV). The data set can be described thus: HBsAg secretion in HepG2.2.15 culture supernatant (ELISA). It is filed as cell-based. As to conditions: HepG2.2.15 supernatant, eighth day, read-out: HBsAg secreation IC50.
Description: as §1, §2, §3, §4

A further data set concerns the target HIV-1 protease (Human immunodeficiency virus type 1 group M subtype B, UniProt P04585). The data set can be described thus: HIV-1 protease inhibition. It is filed as biochemical.
In a further data set the test system is herpes virus I (HSV-I). The data set can be described thus: Anti herpes virus I activity, cytopathic effect in Vero cells. It is filed as cell-based. The settings on record: read-out: Anti herpes virus I HSV-I (IC50).
Description: as §6

A further data set addresses T1, HIV-1 integrase (Human immunodeficiency virus type 1 group M subtype B, UniProt P04585).
T1 construct: purified HIV-1 integrase
As to the kind of experiment: HIV-1 integrase inhibition (ELISA, chain transfer). It is filed as biochemical. The settings on record: enzyme inhibition. Here is the method:
2. Screening of the compounds for the anti HIV-1 integrase activity: the synthesized 30 oligonucleotide (5′P-[…]-3′,3′-[…]-5′) was used as donor substrate, and the synthesized 20 oligonucleoside (5′-[…]-3′-biotin, biotin-3′-[…]-5′) was used as target substrate. On a 96-well plate, the donor substrate was added with purified HIV-1 integrase to conduct ELISA reaction. The product of chain transfer of target DNA was detected and stained in the biotin labeled alkaline phosphatase system, OD values were measured with microplate reader. Addition of the compounds of the present invention in the reaction system can be used to screen the inhibitor of the enzyme.

The mark [6] stands for this setting: Human alphaherpesvirus 2, Vero cells, cytopathic effect.

Take `COC(=O)c1coc([C@H](C)NC(=O)c2nc(-c3csc([C@@H](NC(=O)C4CCCC4)C(C)C)n3)oc2C)n1` [Wang529.61-1]: the CC50 – broadly, the concentration at which the toxic effect on the cells reaches its halfway point – in [1] was determined as 472 µM. Further, the IC50 (in general, the concentration at which inhibition is half-maximal) in the data set on hepatitis B virus (HBV) [2] was found to be 171 µM; in the data set with influenza A virus, 3.15 mg/L (≈ 5.95 µM); in the data set with herpes virus II (HSV-II) (setting [6]), 107 mg/L (≈ 201 µM); with hepatitis B virus (HBV) [5], 214 µM. The TC50 was determined as 198.43 mg/L (≈ 375 µM) in data set [3] and 191.74 mg/L (≈ 362 µM) in data set [4].
`COC(=O)c1nc(-c2csc([C@@H](NC(=O)c3csc([C@@H](NC(=O)OC(C)(C)C)C(C)C)n3)C(C)C)n2)oc1C` [Wang 577.72]: the TC50 in data set [3] was 176.78 mg/L (≈ 306 µM). Moreover, the results for the IC50 with herpes virus II (HSV-II) (setting [6]) and on HIV-1 protease were 97.6 mg/L (≈ 169 µM) and 57.6 µM, respectively.
With `COC(=O)c1nc(-c2csc([C@@H](NC(=O)COCc3ccccc3)C(C)C)n2)oc1C` [Wang 443.52], the IC50 with herpes virus I (HSV-I) (Human alphaherpesvirus 1, Vero) came out at 107 mg/L (≈ 240 µM); in the data set on influenza A virus, 1.29 mg/L (≈ 2.91 µM); in the data set with herpes virus II (HSV-II) (Human alphaherpesvirus 2, Vero), 78.8 mg/L (≈ 178 µM). Moreover, the results for the TC50 in [3] and in [4] were 168.24 mg/L (≈ 379 µM) and 165.86 mg/L (≈ 374 µM), respectively.
In the case of `COC(=O)c1nc(-c2csc([C@@H](NC(=O)c3ccccc3)C(C)C)n2)oc1C` [Wang 399.46], the IC50 against HIV-1 integrase is 365 µM; with influenza A virus, 1.14 mg/L (≈ 2.85 µM). This compound also returned a TC50 in [4] of 166.67 mg/L (≈ 417 µM).
As to `COC(=O)c1nc(-c2csc([C@@H](NC(=O)C3CC3)C(C)C)n2)oc1C` [Wang363.43-1], the IC50 in the data set with herpes virus I (HSV-I) (Human alphaherpesvirus 1, Vero cells, cytopathic effect) is 369 mg/L (≈ 1020 µM); in the data set on influenza A virus, 3.97 mg/L (≈ 10.9 µM). Also, the TC50 in [3] is 707.11 mg/L (≈ 1950 µM); in [4], 500 mg/L (≈ 1380 µM).
